The values below come from patent US8008506B2, “Indazole compounds” (priority 2008, dated 2011).

Where two headings read alike, the source gives them in different places.

Holding throughout (type): cell-based
Assay [1] has as its target T1, human β3 adrenergic receptor (Homo sapiens, UniProt P13945).
T1 construct: the full length human β3 gene is obtained from a human genomic library; expressed in transfected cells; host or cells: CHO (Chinese Hamster Ovary) cells, pcDNA3, geneticin selection
Briefly: Test Example 1-B: human β3 adrenergic receptor agonist activity (cAMP-Screen kit, transfected CHO cells, 96-well). The settings on record: for Emax: CHO, read-out: β3 receptor I.A.; for EC50: Table 2, Test Example 1-B. The procedure: Measurement of Human β3 Adrenergic Receptor Agonist Activity
(§1) The measurement of human β3 adrenergic receptor agonist activity is carried out using CHO (Chinese Hamster Ovary) cells transfected with pcDNA3 (manufactured by Invitrogen, Inc.) to which human β3 gene has been inserted. […] This human β3 cDNA fragment is used as a probe, and the full length human β3 gene is obtained from a human genomic library (manufactured by Clontech Laboratories, Inc.). The above cells are cultured in Ham's F-12 medium containing 10% fetal bovine serum and 400 μg/ml geneticin (manufactured by Invitrogen, Inc.). These cells are seeded on a 96-well plate to a concentration of 2×10^4 cells/well, and after being cultured for about 20 hours, the cells are left to stand in 80 μL of serum-free Ham's F-12 medium for 15 minutes. A test compound is initially dissolved in DMSO, and then is diluted stepwise with Ham's F-12 containing 100 mmol/L HEPES and 1 mmol/L isobutylmethylxanthine. 20 μL of the dilution is added to the cells. After the cells are cultured for 30 minutes, the medium is removed. 0.3. ml of the Assay/lysis Buffer included in cAMP-Screen kit (manufactured by Applied Biosystems, Inc.) is added to the cells, and the cells are incubated at 37° C. for 30 minutes. The resulting cell lysate is subjected to quantification of cAMP with the cAMP-Screen kit.

In assay [2] the target is T2, human β1 adrenergic receptor (Homo sapiens, UniProt P08588).
T2 construct: expressed in transfected cells; host or cells: CHO (Chinese Hamster Ovary) cells, pcDNA3
T2 sequence (P08588 whole entry): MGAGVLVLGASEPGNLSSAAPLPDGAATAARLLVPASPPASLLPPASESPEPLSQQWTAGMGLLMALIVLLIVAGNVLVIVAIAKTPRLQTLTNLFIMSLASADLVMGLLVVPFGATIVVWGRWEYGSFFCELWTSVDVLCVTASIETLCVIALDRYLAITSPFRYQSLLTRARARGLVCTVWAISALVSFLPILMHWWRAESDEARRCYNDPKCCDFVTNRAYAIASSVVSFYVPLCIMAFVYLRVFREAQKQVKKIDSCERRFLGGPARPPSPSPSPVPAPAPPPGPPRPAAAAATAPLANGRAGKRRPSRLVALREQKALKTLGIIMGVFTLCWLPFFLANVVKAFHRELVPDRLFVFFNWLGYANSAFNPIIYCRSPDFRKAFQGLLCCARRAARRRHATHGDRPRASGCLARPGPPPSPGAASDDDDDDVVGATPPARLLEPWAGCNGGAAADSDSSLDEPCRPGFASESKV
Briefly: Test Example 2-B: human β1 adrenergic receptor agonist activity (method of Test Example 1-B). The settings on record: for β1 receptor EC50: Table 2, Test Example 2-B; for Emax: read-out: β1 receptor I.A. The procedure: as §1, with “kit. […] Measurement of Human β1 Adrenergic Receptor Agonist Activity” for “kit.”

Assay [3] has as its target T3, human β2 adrenergic receptor (Homo sapiens, UniProt P07550).
T3 construct: expressed in transfected cells; host or cells: CHO (Chinese Hamster Ovary) cells, pcDNA3
Nature of the assay: Test Example 3-B: human β2 adrenergic receptor agonist activity (method of Test Example 1-B). The conditions noted are these: for β2 receptor EC50: Table 2, Test Example 3-B; for Emax: read-out: β2 receptor I.A. The procedure:
[Worded in the source for another target; this target is reported under the same test.] as §1, with “kit. […] Measurement of Human β2 Adrenergic Receptor Agonist Activity” for “kit.”

Assay [4] has as its target T4, human α1A adrenergic receptor (Homo sapiens, UniProt P35348).
T4 construct: expressed in transfected cells; host or cells: HEK293 cells, pcDNA3.1(−), hygromycin B selection
T4 sequence (P35348 1-466): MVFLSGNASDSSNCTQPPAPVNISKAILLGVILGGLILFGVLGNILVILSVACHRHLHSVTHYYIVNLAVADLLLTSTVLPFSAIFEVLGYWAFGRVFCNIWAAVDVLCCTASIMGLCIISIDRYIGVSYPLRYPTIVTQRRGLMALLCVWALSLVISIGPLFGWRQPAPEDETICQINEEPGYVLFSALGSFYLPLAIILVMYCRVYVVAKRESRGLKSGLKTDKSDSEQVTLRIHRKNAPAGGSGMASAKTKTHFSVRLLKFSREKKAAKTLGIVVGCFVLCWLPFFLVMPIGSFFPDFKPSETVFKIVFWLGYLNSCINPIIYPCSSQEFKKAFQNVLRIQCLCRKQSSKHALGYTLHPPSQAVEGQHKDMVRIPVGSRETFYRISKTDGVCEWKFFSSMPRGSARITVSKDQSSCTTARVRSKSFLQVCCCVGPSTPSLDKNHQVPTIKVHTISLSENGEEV
Nature of the assay: Test Example 4: human α1A adrenergic receptor agonist activity (Ca flux, Fura-2, transfected HEK293 cells). The conditions noted are these: for Emax: HEK293, read-out: α1A receptor I.A. The procedure:
Measurement of Human α1A Adrenergic Receptor Agonist Activity
The measurement of human α1A adrenergic receptor agonist activity is carried out using HEK293 cells transfected with pcDNA3.1(−) (manufactured by Invitrogen, Inc.) to which human α1A gene has been inserted. These cells are cultured in DMEM medium containing 10% fetal bovine serum, 400 μg/ml hygromycin B (manufactured by Gibco BRL), 100 U/ml penicillin and 100 μg/ml streptomycin. […] The cells are loaded in a CO2 incubator for 30 minutes, and then are washed twice with the Assay Buffer to remove excess Fura-2AM. The cells are centrifuged, and then are prepared into a solution at 5×10^6 cells/ml with the Assay Buffer. Subsequently, the cells are dispensed on a 96-well plate (manufactured by Corning, Inc.) at a volume of 80 μl/well, and the plate is used as a cell plate. […] Subsequently, measurement of fluorescence intensity (excitation wavelength 340 nm and 380 nm, measurement wavelength 500 nm) is initiated at an interval of 2 seconds. After making measurements for about 30 seconds, 20 μl of the test sample from the sample plate is added to the cell plate, and measurements are further continued for 270 seconds. The Ca flux resulting from the test compound is calculated utilizing the difference between the maximum value of fluorescence intensity ratio at the wavelengths 340 nm and 380 nm after the addition of the test compound, and the fluorescence intensity ratio before the addition of the test compound, as the peak height.

Setting [5] is: Table 2, Test Example 4, read-out: α1A receptor EC50.

T1 sequence (P13945 whole entry): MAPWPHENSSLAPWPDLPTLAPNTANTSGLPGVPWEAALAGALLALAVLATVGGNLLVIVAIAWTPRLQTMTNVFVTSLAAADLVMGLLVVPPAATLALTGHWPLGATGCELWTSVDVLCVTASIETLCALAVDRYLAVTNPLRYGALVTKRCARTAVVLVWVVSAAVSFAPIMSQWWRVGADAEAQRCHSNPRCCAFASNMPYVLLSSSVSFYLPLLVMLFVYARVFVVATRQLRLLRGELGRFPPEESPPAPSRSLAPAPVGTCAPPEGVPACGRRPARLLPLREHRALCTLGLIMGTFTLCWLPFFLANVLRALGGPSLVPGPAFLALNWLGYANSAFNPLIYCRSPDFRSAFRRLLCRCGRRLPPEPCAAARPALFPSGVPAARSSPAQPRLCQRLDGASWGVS
T3 sequence (P07550 whole entry): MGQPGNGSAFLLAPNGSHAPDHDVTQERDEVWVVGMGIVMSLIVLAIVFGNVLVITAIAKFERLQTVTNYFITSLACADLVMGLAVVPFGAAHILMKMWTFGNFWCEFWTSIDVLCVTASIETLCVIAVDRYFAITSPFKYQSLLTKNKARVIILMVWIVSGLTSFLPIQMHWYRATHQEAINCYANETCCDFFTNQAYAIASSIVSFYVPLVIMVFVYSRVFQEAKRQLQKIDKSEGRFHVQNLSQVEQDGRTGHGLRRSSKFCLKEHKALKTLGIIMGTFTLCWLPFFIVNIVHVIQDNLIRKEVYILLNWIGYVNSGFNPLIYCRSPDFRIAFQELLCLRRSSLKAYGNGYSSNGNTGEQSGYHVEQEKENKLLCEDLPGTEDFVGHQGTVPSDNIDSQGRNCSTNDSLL

One may read the EC50 as the midpoint of the concentration-response curve. Take `CC(C)c1n[nH]c2cc(OCCNC[C@H](O)c3ccc(Cl)c(NS(C)(=O)=O)c3)ccc12` [Example 7, (R)-N-(2-chloro-5-(1-hydroxy-2-(2-(3-isopropylindazol-6-yloxy)ethylamino)ethyl)phenyl)methanesulfonamide]: the Emax worked out at 65% in assay [1], 22% in assay [2], 8% in assay [3] and 0% in assay [4]. The values for the concentration giving a half-maximal response (EC50) in assay [1] and in assay [4] (setting [5]) were 13 nM and above 2000 nM, respectively. Besides, the “β1 receptor EC50” value in assay [2] is on record as “a)”. The “β2 receptor EC50” value in assay [3] is on record as “a)”.

Regarding `CS(=O)(=O)Nc1cc([C@@H](O)CNCCOc2ccc3c(C(F)(F)F)n[nH]c3c2)ccc1F` [Example 10, (R)-N-(2-fluoro-5-(1-hydroxy-2-(2-(3-(trifluoromethyl)indazol-6-yloxy)ethylamino)ethyl)phenyl)methanesulfonamide], the Emax came to 53% in assay [1], 8% in assay [2], 3% in assay [3] and 15% in assay [4]. Further, the EC50 turned out to be 41 nM in assay [1] and 1290 nM in assay [4] (setting [5]). Moreover, the “β1 receptor EC50” value in assay [2] is “a)”. For the same compound, the “β2 receptor EC50” value in assay [3] is “a)”.

For the compound `Cc1n[nH]c2cc(OCCNC[C@H](O)c3cccc(NS(=O)(=O)C(C)C)c3)ccc12` [Example 12, (R)-N-(3-(1-hydroxy-2-(2-(3-methylindazol-6-yloxy)ethylamino)ethyl)phenyl)propane-2-sulfonamide], the Emax in assay [1] is 84%; in assay [2] it was -1%; in assay [3] it was 2%; in assay [4] it was 34%. For the same compound, the EC50 in assay [1] was determined as 84 nM; in assay [4], 1310 nM. Also, the “β1 receptor EC50” value in assay [2] was “b)”. For the same compound, the “β2 receptor EC50” value in assay [3] is listed as “a)”.

As to `CCc1n[nH]c2cc(OCCNC[C@H](O)c3cccc(NS(=O)(=O)C(C)C)c3)ccc12` [Example 13, (R)-N-(3-(2-(2-(3-ethylindazol-6-yloxy)ethylamino)-1-hydroxyethyl)phenyl)propane-2-sulfonamide], the Emax in assay [1] was 80%; in assay [2], -2%; in assay [3], -3%; in assay [4], 20%. Moreover, the 50% effective concentration (EC50) was 47 nM in assay [1] and above 2000 nM in assay [4] (setting [5]). The “β1 receptor EC50” value in assay [2] is given as “b)”. In addition, in assay [3], the “β2 receptor EC50” value was “b)”.

For the compound `Cc1n[nH]c2cc(OCCNC[C@H](O)c3cccc(NS(=O)(=O)c4ccccc4)c3)ccc12` [Example 14, (R)-N-(3-(1-hydroxy-2-(2-(3-methylindazol-6-yloxy)ethylamino)ethyl)phenyl)benzenesulfonamide], the Emax in assay [1] worked out at 90%; in assay [2], 16%; in assay [3], 0%; in assay [4], 0%. In addition, the figures for the EC50 in assay [1] and in assay [4] were 10 nM and above 2000 nM, respectively. In assay [2], the “β1 receptor EC50” value is listed as “a)”. Also, in assay [3], the “β2 receptor EC50” value was “b)”.

On to `CCc1n[nH]c2cc(OCCNC[C@H](O)c3cccc(NS(=O)(=O)c4ccccc4)c3)ccc12` [Example 15, (R)-N-(3-(2-(2-(3-ethylindazol-6-yloxy)ethylamino)-1-hydroxyethyl)phenyl)benzenesulfonamide], for which the Emax in assay [1] is 80%; in assay [2], 1%; in assay [3], -3%; in assay [4], 0%. Further, the concentration giving a half-maximal response (EC50) in assay [1] is 13 nM; in assay [4] (setting [5]), above 2000 nM. For the same compound, the “β1 receptor EC50” value in assay [2] is listed as “a)”. Besides, in assay [3], the “β2 receptor EC50” value is listed as “b)”.

For `CCc1n[nH]c2cc(OCCNC[C@H](O)c3cccc(NS(=O)(=O)CC)c3)ccc12` [Example 20, (R)-N-(3-(2-(2-(3-ethylindazol-6-yloxy)ethylamino)-1-hydroxyethyl)phenyl)ethanesulfonamide], the Emax in assay [1] amounted to 80%; in assay [2] it was 3%; in assay [3] it was 5%; in assay [4] it was 26%. Further, the half-maximal effective concentration (EC50) in assay [1] is 11 nM; in assay [4] (setting [5]), 488 nM. Moreover, in assay [2], the “β1 receptor EC50” value was “a)”. In addition, in assay [3], the “β2 receptor EC50” value was “a)”.

With `NC[C@H](O)c1ccc(O)c(O)c1` [Norepinephrine, reference compound], the Emax in assay [4] amounted to 100%. In addition, the “α1A receptor I.A.” value in assay [4] (Table 2, maximum response to norepinephrine taken as 100%) is reported as 100%.
